This is an account of results in US20250228954A1, “Designing Antisense Oligonucleotide Delivery Peptides by Interpretable Machine Learning” (Sarepta Therapeutics, Inc., priority 2020, published 2025).

A short description of data set [1]: Serum kidney injury markers in EGFP-654 mice. It counts as in vivo, mouse. The settings on record: after seven days. The procedure: After 3-days of acclimation, mice were randomized into groups to receive a single i.v. tail vein injection of either saline or PMO-P7 at the indicated doses; 5, 10 and 30 mg/kg. Seven days after the injection, the mice were euthanized for serum and tissue sample collection. Quadriceps, diaphragm, heart were rapidly dissected, snap-frozen in liquid nitrogen and stored at −80° C. until analysis.
Serum from all groups were collected 7-days post-injection and tested for kidney injury markers using a Vet Axcel Clinical Chemistry System (Alfa Wassermann Diagnostic Technologies, LLC). Specifically, serum BUN, creatinine, and cystatin C levels were measured using ACE® Creatinine Reagent (Alfa Wassermann, Cat #SA1012), ACER Blood Urea Nitrogen Reagent (Alfa Wassermann, Cat #SA2024) and Diazyme Cystatin C immunoassay (Diazyme Laboratories, Cat #DX133C—K), […], per manufacturer's recommendation (See, FIGS. 24A-C).

The test system of a further data set is HeLa 654 cells. The data set can be described thus: HeLa-654 eGFP assay (corrective splicing / exon skipping by PMO IVS2-654). Format: cell-based, human.
Data set [2] can be described thus: Chromogenic LAL endotoxin assay. The note with it: lot used for animal studies, acetate salt, 0.5 mg in 1 mL PBS. How it is done:
The amount of endotoxin in PMO-P7 was measured. A chromogenic LAL (Limulus Amebocyte Lysate) assay for the detection and quantification of bacterial endotoxins was used. LAL is an extract of blood cells (amoebocytes) from the Atlantic horseshoe crab. This assay is based on the reaction of LAL with bacterial endotoxin lipopolysaccharide (LPS), which is a membrane component of gram-negative bacteria. In this method the LAL reagent is mixed with a chromogenic reagent (a peptide connected to p-nitroaniline, a yellow colorant) to produce a synthetic chromogenic substrate. The sample was added to this chromogenic substrate prior incubation. The presence of endotoxins in the sample produces a series of enzymatic reactions in the LAL reagent resulting in the breaking of the peptide bonds releasing p-nitroaniline molecules and therefore producing a yellow color. The concentration of endotoxin is quantitated by measuring the absorbance at 405-410 nm. Using the lot of PMO-P7 for animal studies, PMO-P7 solution was prepared using 0.5 mg of PMO-P^7 as acetate salt dissolved in 1 mL of PBS (1X). […] The reader mixed the sample with the LAL (Limulus Amebocyte Lysate) reagent. […] After mixing, the optical density of the wells was measured and analyzed against an internal archived standard curve. The reading was 0.0471 EU/mg (EU: endotoxin units). […]

A further data set concerns EGFP-654 mice. The data set can be described thus: EGFP protein level in tissues of EGFP-654 mice after single i.v. injection. Format: in vivo, mouse. Also on record: unit not given here. The note with it: 7 days. The text has this: The mice used in the study contain a similar transgene as the HeLa654 cells from Example 4. This mouse model ubiquitously expresses EGFP-654 transgene throughout the body under chicken β-actin promoter. A mutated nucleotide 654 at intron 2 of human β-globin gene is contained in the EGFP-654 sequence which interrupts EGFP-654 coding sequence and prevents proper translation of EGFP protein. […] In this study, 6- to 8-week-old male EGFP-654 mice bred at Charles River Laboratory were used. These mice were group housed with ad libitum access to food and water.
[…] Seven days after the injection, the mice were euthanized for serum and tissue sample collection. Quadriceps, diaphragm, heart were rapidly dissected, snap-frozen in liquid nitrogen and stored at −80° C. until analysis.
20-25 mg of mouse tissue was homogenized in RIPA buffer (Thermo Fisher, Cat #89900) with protease inhibitor cocktail (Roche, 04693124001) using a Fast Prep 24-5G instrument (MP Biomedical). Homogenates were centrifuged at 12,000 g for 10 min at 4° C. The resultant supernatant lysates were quantified by Pierce BCA Protein Assay Kit (Thermo Fisher, Cat #23225) and saved for EGFP expression measurement. Specifically, 80 μg of lysates were aliquoted in each well in a black-wall clear-bottom 96-well microplate (Corning). EGFP fluorescent intensity of each sample was measured in duplicates using a SpectraMAx i3x microplate reader (Molecular devices) by default setting. The average EGFP fluorescent intensity of each sample was then plotted against a standard curve constructed by recombinant EGFP protein (Origen, Cat #TP790050) to quantify EGFP protein level per μg protein lysate (See FIGS. 24D-F).

With `Cc1cn([C@H]2CN(P(=O)(OC[C@@H]3CN(P(=O)(OC[C@@H]4CN(P(=O)(OC[C@@H]5CN(P(=O)(OC[C@@H]6CN(P(=O)(OC[C@@H]7CN(P(=O)(OC[C@@H]8CN(P(=O)(OC[C@@H]9CN(P(=O)(OC[C@@H]%10CN(C(=O)CCCCC(=O)N%11Cc%12ccccc%12-c%12nnn(CCCCC(=O)N[C@@H](CCCCN)C(=O)N[C@@H](CCCCN)C(=O)N[C@@H](CCCCN)C(=O)N[C@@H](CCCCN)C(=O)N[C@@H](CCCCN)C(=O)N[C@@H](CCC(N)=O)C(=O)NCCC(=O)N[C@@H](CCCCN)C(=O)N[C@@H](CCCCN)C(=O)N[C@@H](CCCCN)C(=O)N[C@@H](Cc%13c[nH]cn%13)C(=O)N[C@@H](CCCNC(=N)N)C(=O)N[C@@H](Cc%13c[nH]c%14ccccc%13%14)C(=O)N%13CCC[C@H]%13C(=O)N[C@@H](CCCCN)C(=O)NCCCCCC(=O)NCCCCCC(=O)N[C@@H](CS)C(N)=O)c%12-c%12ccccc%12%11)C[C@H](n%11cnc%12c(=O)[nH]c(N)nc%12%11)O%10)N(C)C)C[C@H](n%10cnc%11c(N)ncnc%11%10)O9)N(C)C)C[C@H](n9ccc(N)nc9=O)O8)N(C)C)C[C@H](n8ccc(N)nc8=O)O7)N(C)C)C[C@H](n7ccc(N)nc7=O)O6)N(C)C)C[C@H](n6cnc7c(N)ncnc76)O5)N(C)C)C[C@H](n5cnc6c(N)ncnc65)O4)N(C)C)C[C@H](n4cc(C)c(=O)[nH]c4=O)O3)N(C)C)C[C@@H](COP(=O)(N(C)C)N3C[C@@H](COP(=O)(N(C)C)N4C[C@@H](COP(=O)(N(C)C)N5C[C@@H](COP(=O)(N(C)C)N6C[C@@H](COP(=O)(N(C)C)N7C[C@@H](COP(=O)(N(C)C)N8C[C@@H](COP(=O)(N(C)C)N9C[C@@H](COP(=O)(N(C)C)N%10C[C@@H](COP(=O)(N(C)C)N%11C[C@@H](COP(=O)(N(C)C)N%12CCN(C(=O)OCCOCCOCCO)CC%12)O[C@@H](n%12cnc%13c(=O)[nH]c(N)nc%13%12)C%11)O[C@@H](n%11ccc(N)nc%11=O)C%10)O[C@@H](n%10cc(C)c(=O)[nH]c%10=O)C9)O[C@@H](n9cnc%10c(N)ncnc%109)C8)O[C@@H](n8cc(C)c(=O)[nH]c8=O)C7)O[C@@H](n7cc(C)c(=O)[nH]c7=O)C6)O[C@@H](n6cnc7c(N)ncnc76)C5)O[C@@H](n5ccc(N)nc5=O)C4)O[C@@H](n4ccc(N)nc4=O)C3)O2)c(=O)[nH]c1=O` (some centres unmarked) [P7], in data set [1], the “BUN (blood urea nitrogen) levels” value is given as “no significant changes”, the creatinine levels entry is given as “no significant changes” and the “cystatin C levels” value is listed as “no significant changes”. Further, in the data set with HeLa 654 cells (5 μM), the “fold increase in activity with respect to unconjugated PMO (eGFP assay)” value worked out at 14 fold. The “PMO delivery / activity, result in words” value in the data set on HeLa 654 cells (5 μM, 22 h) is reported as “superior activity”. In addition, in the data set with HeLa 654 cells (dose-response between 0.1 and 100 μM), the “fold increase at maximal effective concentration with respect to unconjugated PMO” value is on record as 45 fold. Also, in the data set on HeLa 654 cells (eGFP fluorescence of PMO-peptide conjugate relative to unconjugated PMO, 5 μM, 22 h), the “FOLD OVER PMO” value is reported as 17.7. Also, the endotoxin in data set [2] was 0.0471 EU/mg. Moreover, in the data set with EGFP-654 mice (30 mg/kg), the “GFP protein in the Diaphragm” value is listed as 1100, the “GFP protein in the Heart” value came out at 2000 and the “GFP protein in the Quadriceps” value was found to be 1300. Further, in the data set with EGFP-654 mice (60 mg/kg), the “GFP protein in the Diaphragm” value came to 2500, the “GFP protein in the Heart” value turned out to be 2200 and the “GFP protein in the Quadriceps” value was determined as 4000.
